# Laboratory results from US8128959B2, “Polymeric pharmaceutical agent for treatment of cancer and method for production of the same” (Hiroshi Maeda, priority 2005, dated 2012).
# Test: Solubility in water
# Assay type: physicochemical
# Description: In order to solubilize it in water, the present inventors have conjugated it with amphiphilic polyethylene glycol (PEG) having an average molecular weight of 100-20,000 (preferably about 5,000) (patent document 2) to create a water-soluble derivative thereof.
structure (smiles),measurement,value
"C=CC1=C(C)c2cc3[n-]c(cc4nc(cc5[n-]c(cc1n2)c(C)c5C=C)C(C)=C4CCC(=O)O)c(CCC(=O)O)c3C.[Zn+2] [ZnPP, zinc-protoporphyrin]",solubility in water,insoluble in water
